Assay results taken from PubChem BioAssay (NCI).
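Cells were grown in 96-well plates and exposed to each compound for 48 hours at five concentrations; endpoints were interpolated linearly between bracketing concentrations, or set to the highest concentration if not reached. GI50 = concentration required for 50% inhibition of growth. TGI marks complete inhibition of growth.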

How the values were obtained:
Experiment in all cases: growth of human tumour cells (NCI), 48 h
A549 NSCLC = tested on: A549 NSCLC
EKVX NSCLC = tested on: EKVX NSCLC
HCT-15 colon = tested on: HCT-15 colon
LOX IMVI melanoma = tested on: LOX IMVI melanoma
NCI-H226 lung = tested on: NCI-H226 lung
OVCAR-5 ovarian = tested on: OVCAR-5 ovarian
SK-MEL-2 melanoma = tested on: SK-MEL-2 melanoma
SN12C renal = tested on: SN12C renal
SNB-75 CNS = tested on: SNB-75 CNS
T-47D breast = tested on: T-47D breast

| SMILES | TGI (A549 NSCLC) | TGI (EKVX NSCLC) | TGI (HCT-15 colon) | TGI (LOX IMVI melanoma) | TGI (NCI-H226 lung) | TGI (OVCAR-5 ovarian) | TGI (SK-MEL-2 melanoma) | TGI (SN12C renal) | TGI (SNB-75 CNS) | GI50 (A549 NSCLC) | GI50 (EKVX NSCLC) | GI50 (HCT-15 colon) | GI50 (LOX IMVI melanoma) | GI50 (NCI-H226 lung) | GI50 (OVCAR-5 ovarian) | GI50 (SK-MEL-2 melanoma) | GI50 (SNB-75 CNS) | GI50 (T-47D breast) | TGI (T-47D breast) | GI50 (SN12C renal) |
| --- | --- | --- | --- | --- | --- | --- | --- | --- | --- | --- | --- | --- | --- | --- | --- | --- | --- | --- | --- | --- |
| Cc1ccc(C2=Nc3ccccc3SC(c3cccc4c3OCO4)C2)cc1 (centres undefined) | 72.4 µM | 38.7 µM | 54.1 µM | 31.1 µM | 37 µM | 51.5 µM | 44 µM | 41 µM | 28.8 µM |  |  |  |  |  |  |  |  |  |  |  |
| c1ccc2c(CNCCN3CCNCC3)c3ccccc3c(CNCCN3CCNCC3)c2c1 | > 100 µM | 61.3 µM | > 100 µM | 29.5 µM | 37.6 µM | 17.4 µM | > 100 µM |  | > 100 µM | 35.1 µM | 19.3 µM | > 100 µM | 12.9 µM | 10.3 µM | 3.99 µM | 29 µM | 58.4 µM | 19.9 µM | 81.9 µM |  |
| C[P+]1(c2ccccc2)CCCCC1 | > 100 µM | > 100 µM | > 100 µM | > 100 µM |  | > 100 µM | > 100 µM | > 100 µM | > 100 µM |  |  |  |  |  |  |  |  |  |  |  |
| Cc1cc2c(c(=O)o1)C1=S(SC(c3ccccc3)=C1)S2 (centres undefined) | > 100 µM |  | > 100 µM | > 100 µM |  | > 100 µM | > 100 µM | > 100 µM | 94.5 µM |  |  |  |  |  |  |  |  |  | > 100 µM |  |
| N#C/C(=C1\OC(=N)C(c2ccc(Cl)cc2Cl)C1=O)c1ccc(Cl)cc1Cl (centres undefined) | > 100 µM | > 100 µM | > 100 µM | > 100 µM | > 100 µM | > 100 µM | > 100 µM | > 100 µM | > 100 µM |  |  |  |  |  |  |  |  |  |  |  |
| O=C(CO)C1CC2C=CC1C2 (centres undefined) | > 100 µM | > 100 µM | > 100 µM | > 100 µM |  | > 100 µM | > 100 µM | > 100 µM | > 100 µM |  |  |  |  |  |  |  |  |  |  |  |
| CC(N)CC(=O)O (centres undefined) | > 5000 µM | > 5000 µM | > 5000 µM |  | > 5000 µM | > 5000 µM | > 5000 µM | > 5000 µM | > 5000 µM |  |  |  |  |  |  |  |  |  |  |  |
| Cc1ccc(NC(=O)/C(C#N)=C/c2ccccc2)c(C)c1 | > 100 µM | > 100 µM | > 100 µM |  | > 100 µM | > 100 µM | > 100 µM | > 100 µM | > 100 µM |  |  |  |  |  |  |  |  |  |  |  |
| C=CC[N+]1(CC)CCN=C1CCCCCCCCCCCCCCCCC (centres undefined) |  |  |  |  |  | 1.64 µM | 1.59 µM | 1.99 µM |  |  |  |  |  |  | 0.472 µM | 0.538 µM |  | 0.315 µM | 1.62 µM | 0.623 µM |
| CC1CCN(CCOc2ccc(CNc3ccc4nc(CCC5CCCCC5)[nH]c4c3)cc2)CC1 |  | 3.18 µM | 3.03 µM | 3.1 µM | 3.48 µM | 3.44 µM | 3.41 µM | 2.95 µM | 3.55 µM |  | 1.62 µM | 1.43 µM | 1.67 µM | 1.63 µM | 1.76 µM | 1.83 µM | 1.59 µM |  |  | 1.54 µM |
| CC(C)OC(=O)C1Cc2c([nH]c3ccccc23)C(c2ccccc2)N1 (centres undefined) | > 100 µM | > 100 µM | > 100 µM | > 100 µM | > 100 µM | > 100 µM | 41.2 µM | > 100 µM | 86.5 µM |  |  |  |  |  |  |  |  |  |  |  |
